Tests used:
Type in all cases: cell-based
rabbit KV7.1/human KCNE1 = target: T1, rabbit KV7.1/human KCNE1 (Oryctolagus cuniculus; Homo sapiens, UniProt P15382+Q9MYS6); assay: two-electrode voltage clamp, Xenopus oocytes, change of Gmax; details: 10 µM; inhibition; EC50 fit ambiguous; pH 7.4, about 20 °C; ethanol vehicle
T1 construct: gene KCNQ1; cross-species complex of two intact wild-type subunits (no fusion): rabbit KV7.1 and human KCNE1 cRNAs co-injected in Xenopus laevis oocytes
Description: two-electrode voltage clamp, Xenopus oocytes, change of Gmax on rabbit KV7.1/human KCNE1

guinea pig KV7.1/KCNE1 = target: T2, guinea pig KV7.1/KCNE1 (Cavia porcellus, UniProt A6Y9U2+Q60409); assay: as above; details: 3 µM; inhibition; EC50 fit ambiguous; pH 7.4, about 20 °C; ethanol vehicle
T2 construct: gene KCNQ1; wild-type KV7.1 and KCNE1 cRNAs co-injected in Xenopus laevis oocytes; KCNE1 in excess; four KV7.1 with one to four KCNE1
Description: two-electrode voltage clamp, Xenopus oocytes, change of Gmax on guinea pig KV7.1/KCNE1

[1] = target: T3, human KV7.1/KCNE1 (tested as KV7.1/KCNE1_K69Q) (Homo sapiens, UniProt P15382+P51787, P15382:K69Q); assay: two-electrode voltage clamp, Xenopus oocytes, reduction of Gmax
T3 construct: gene KCNQ1; KV7.1 and KCNE1 cRNAs co-injected in Xenopus laevis oocytes; KCNE1 in excess; four KV7.1 with one to four KCNE1
T3 sequence (P51787 whole entry): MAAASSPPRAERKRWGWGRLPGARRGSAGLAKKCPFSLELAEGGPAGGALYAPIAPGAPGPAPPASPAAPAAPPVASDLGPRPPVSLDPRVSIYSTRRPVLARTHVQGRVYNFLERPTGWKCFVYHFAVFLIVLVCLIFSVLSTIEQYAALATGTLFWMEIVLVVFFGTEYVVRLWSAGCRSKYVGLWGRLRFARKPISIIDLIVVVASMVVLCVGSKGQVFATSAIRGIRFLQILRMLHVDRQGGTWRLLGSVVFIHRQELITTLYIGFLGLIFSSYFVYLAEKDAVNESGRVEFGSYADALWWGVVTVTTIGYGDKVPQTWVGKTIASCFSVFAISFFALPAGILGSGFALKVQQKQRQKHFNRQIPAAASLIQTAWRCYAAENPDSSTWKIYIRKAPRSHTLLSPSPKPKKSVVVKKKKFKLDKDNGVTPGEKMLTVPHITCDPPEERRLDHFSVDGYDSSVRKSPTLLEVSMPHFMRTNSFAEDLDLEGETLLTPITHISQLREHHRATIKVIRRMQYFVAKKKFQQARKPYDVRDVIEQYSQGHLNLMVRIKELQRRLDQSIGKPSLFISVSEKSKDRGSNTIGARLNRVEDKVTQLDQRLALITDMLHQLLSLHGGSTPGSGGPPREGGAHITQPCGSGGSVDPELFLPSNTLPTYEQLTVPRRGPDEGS

rabbit KV7.1/KCNE1 = target: T4, rabbit KV7.1/KCNE1 (Oryctolagus cuniculus, UniProt Q28705+Q9MYS6); assay: as above
T4 construct: gene KCNQ1; wild-type KV7.1 and KCNE1 cRNAs co-injected in Xenopus laevis oocytes; KCNE1 in excess; four KV7.1 with one to four KCNE1
T4 sequence (Q9MYS6 whole entry): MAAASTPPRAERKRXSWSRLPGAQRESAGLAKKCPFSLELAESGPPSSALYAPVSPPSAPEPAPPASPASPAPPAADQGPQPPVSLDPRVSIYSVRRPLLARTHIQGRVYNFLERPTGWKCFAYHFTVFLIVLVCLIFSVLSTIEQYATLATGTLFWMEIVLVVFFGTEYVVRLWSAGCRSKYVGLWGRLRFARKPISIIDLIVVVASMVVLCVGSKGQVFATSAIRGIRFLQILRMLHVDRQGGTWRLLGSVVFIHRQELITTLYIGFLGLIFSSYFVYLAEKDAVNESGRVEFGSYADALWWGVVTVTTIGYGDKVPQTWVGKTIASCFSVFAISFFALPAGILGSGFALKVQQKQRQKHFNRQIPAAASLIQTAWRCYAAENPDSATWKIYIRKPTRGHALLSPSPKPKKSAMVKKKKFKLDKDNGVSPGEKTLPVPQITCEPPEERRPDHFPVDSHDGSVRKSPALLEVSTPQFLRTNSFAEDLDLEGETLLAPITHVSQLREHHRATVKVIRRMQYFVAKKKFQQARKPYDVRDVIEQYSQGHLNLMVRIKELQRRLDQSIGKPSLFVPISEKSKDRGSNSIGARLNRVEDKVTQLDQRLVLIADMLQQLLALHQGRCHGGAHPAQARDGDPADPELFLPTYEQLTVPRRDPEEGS
T4 sequence (Q28705 whole entry): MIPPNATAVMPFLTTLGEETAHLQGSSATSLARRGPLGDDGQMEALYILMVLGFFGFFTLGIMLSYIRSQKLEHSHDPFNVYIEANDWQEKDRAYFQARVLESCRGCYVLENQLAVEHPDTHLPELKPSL

human KV7.1/rabbit KCNE1 = target: T5, human KV7.1/rabbit KCNE1 (Homo sapiens; Oryctolagus cuniculus, UniProt P51787+Q28705); assay: two-electrode voltage clamp, Xenopus oocytes, change of Gmax; details: 10 µM; inhibition; EC50 fit ambiguous; pH 7.4, about 20 °C; ethanol vehicle
T5 construct: gene KCNQ1; cross-species complex of two intact wild-type subunits (no fusion): human KV7.1 and rabbit KCNE1 cRNAs co-injected in Xenopus laevis oocytes
T5 sequence (P51787 whole entry, the tested form may be a part): as the sequence (P51787 whole entry) above
T5 sequence (Q28705 whole entry, the tested form may be a part): as the sequence (Q28705 whole entry) above
Description: two-electrode voltage clamp, Xenopus oocytes, change of Gmax on human KV7.1/rabbit KCNE1

T1 sequence (Q9MYS6 whole entry, the tested form may be a part): as the sequence (Q9MYS6 whole entry) above

ΔG max (rabbit KV7.1/human KCNE1): −91.9 ± 3.0 (SEM) %
ΔG max (guinea pig KV7.1/KCNE1): −37.8 ± 3.7 (SEM) %
EC50 [1]: 2900 nM
EC50 (rabbit KV7.1/KCNE1): 230 nM
ΔG max (human KV7.1/rabbit KCNE1): −77.8 ± 6.2 (SEM) %
Structure (SMILES): C[C@]12CC[C@@H]3c4ccc(O)cc4CC[C@H]3[C@@H]1CC[C@@H]2O [17β‐E2]
